Laboratory results: US20240325544A1, “CATIONIC LIPID FOR COVALENT MODIFICATION OF PEPTIDES” (PharmalN Corporation, priority 2023, published 2024)
Bridge positions count the residues as written; N and C are the ends. Peptide text beside a SMILES is read from it. * marks the point of attachment. Stearoyl = CCCCCCCCCCCCCCCCCC(=O)*; Palmitoyl = CCCCCCCCCCCCCCCC(=O)*

Tested on: Sprague Dawley rats
Test: Dose-range finding of cationic alkyl modified CNP, subcutaneous bolus in rats (Table 2)
Description: Animal care and treatment: Male Sprague Dawley rats aged 8 to 10 weeks (Charles River, Hollister, CA) were housed in groups of two (n=3/group) in disposable polypropylene cages with rodent cob bedding at the PharmaIN animal facility. Animals had ad libitum access to food (LabDiet Pico Rodent #5053; Animal Specialties, Woodburn, OR) and water. Temperature (68-74° F.) and humidity (30-60%) were maintained within a controlled range, and a 12-hour light/dark cycle was used. […] Animals were monitored closely during the first 4 hours following injection, then hourly throughout the rest of the day for any signs of swelling or discoloration (dilatory side effect), lethargy (side effect), ataxia (ataxia is used as a marker of toxicity). Rats were allowed a 1-week wash-out period between bolus doses. Following final observations, animals were humanely euthanized through CO2 asphyxiation.

SMILES | Ataxia** in n = 3 (up to 10 mg/kg) | Lethargy* in n = 3 (up to 10 mg/kg) | Swelling and/or Discoloration in n = 3 (up to 10 mg/kg) | Ataxia** in n = 3 (value in parentheses) | Lethargy* in n = 3 (value in parentheses) | Swelling and/or Discoloration in n = 3 (value in parentheses)
CCCCCCCCCCCCCCCCCC(=O)N[C@@H](CCCCN)C(=O)N[C@@H](CCCCN)C(=O)N[C@@H](CCCCN)C(=O)N[C@@H](CCCCN)C(=O)NCC(=O)NCC(=O)NCC(=O)NCC(=O)N[C@@H](CC(C)C)C(=O)N[C@@H](CO)C(=O)N[C@@H](CCCCN)C(=O)NCC(=O)N[C@H]1CSSC[C@@H](C(=O)O)NC(=O)CNC(=O)[C@H](CC(C)C)NC(=O)CNC(=O)[C@H](CO)NC(=O)[C@H](CCC(N)=O)NC(=O)[C@H](CO)NC(=O)CNC(=O)[C@H]([C@@H](C)CC)NC(=O)[C@H](CCCNC(=N)N)NC(=O)[C@H](CC(=O)O)NC(=O)[C@H](CC(C)C)NC(=O)[C@H](CCCCN)NC(=O)[C@H](CC(C)C)NC(=O)CNC(=O)[C@H](Cc2ccccc2)NC1=O [SEQ ID NO: 23] (Stearoyl-KKKKGGGGLSKGCFGLKLDRIGSQSGLGC-OH; disulfide 13-29; C-terminus assumed) | ≥3 mg/kg | ≥1 mg/kg | ≥1 mg/kg | (0.94) μmol/kg | (0.31) μmol/kg | (0.31) μmol/kg
CCCCCCCCCCCCCCCC(=O)N[C@@H](CCCCN)C(=O)N[C@@H](CCCCN)C(=O)NCC(=O)NCC(=O)NCC(=O)N[C@@H](CCCCN)C(=O)N[C@@H](CCCCN)C(=O)NCC(=O)N[C@@H](CC(C)C)C(=O)N[C@@H](CO)C(=O)N[C@@H](CCCCN)C(=O)NCC(=O)N[C@H]1CSSC[C@@H](C(=O)O)NC(=O)CNC(=O)[C@H](CC(C)C)NC(=O)CNC(=O)[C@H](CO)NC(=O)[C@H](CCC(N)=O)NC(=O)[C@H](CO)NC(=O)CNC(=O)[C@H]([C@@H](C)CC)NC(=O)[C@H](CCCNC(=N)N)NC(=O)[C@H](CC(=O)O)NC(=O)[C@H](CC(C)C)NC(=O)[C@H](CCCCN)NC(=O)[C@H](CC(C)C)NC(=O)CNC(=O)[C@H](Cc2ccccc2)NC1=O [SEQ ID NO: 24] (Palmitoyl-KKGGGKKGLSKGCFGLKLDRIGSQSGLGC-OH; disulfide 13-29; C-terminus assumed) | ≥5 mg/kg | ≥5 mg/kg | ≥5 mg/kg | (1.6) μmol/kg | (1.6) μmol/kg | (1.6) μmol/kg
CCCCCCCCCCCCCCCC(=O)NCC(=O)NCC(=O)NCC(=O)N[C@@H](CCCCN)C(=O)N[C@@H](CCCCN)C(=O)N[C@@H](CCCCN)C(=O)N[C@@H](CCCCN)C(=O)NCC(=O)N[C@@H](CC(C)C)C(=O)N[C@@H](CO)C(=O)N[C@@H](CCCCN)C(=O)NCC(=O)N[C@H]1CSSC[C@@H](C(=O)O)NC(=O)CNC(=O)[C@H](CC(C)C)NC(=O)CNC(=O)[C@H](CO)NC(=O)[C@H](CCC(N)=O)NC(=O)[C@H](CO)NC(=O)CNC(=O)[C@H]([C@@H](C)CC)NC(=O)[C@H](CCCNC(=N)N)NC(=O)[C@H](CC(=O)O)NC(=O)[C@H](CC(C)C)NC(=O)[C@H](CCCCN)NC(=O)[C@H](CC(C)C)NC(=O)CNC(=O)[C@H](Cc2ccccc2)NC1=O [SEQ ID NO: 25] (Palmitoyl-GGGKKKKGLSKGCFGLKLDRIGSQSGLGC-OH; disulfide 13-29; C-terminus assumed) | ≥5 mg/kg | ≥5 mg/kg | ≥5 mg/kg | (1.6) μmol/kg | (1.6) μmol/kg | (1.6) μmol/kg
